Laboratory results as given in patent publication US20200230205A1, “COMPOSITIONS AND METHODS FOR TREATING MYELIN DISORDERS” (CASE WESTERN RESERVE UNIVERSITY, priority 2017, published 2020).

Assays:
LPC-demyelinated mice = experiment: Lysolecithin (LPC)-induced focal demyelination of the spinal cord in mice; type: in vivo, mouse
Description: 12-week-old C57BL/6 male mice were anaesthetized using isoflurane and a laminectomy was performed. […] of 1% LPC was infused into the dorsal column between T11 and T12 spinal cord at a rate of 0.25 μl/min. The needle was removed after a delay of 5 min to minimize back flow and the lesion closed. […] The mice were euthanized at day 7, 14 and 21 after the laminectomy separately. Spinal cords were dissected for further western blot, histology and ultrastructural analysis. Control animals received an equivalent injection of saline, and tissues were collected according to the same paradigm. […] Lesion sizes were determined by staining of serial sections with eriochrome cyanine staining.
For spinal cord sections, 20 μm coronal sections were incubated in LFB solution in 56° C. overnight and then rinsed sequentially with 95% alcohol and distilled water. The sections were then in 0.1% lithium carbonate solution and followed dehydration with a series of gradated ethanol, cleared with Histoclear and mounted. A set of serial matched sections were imaged and analyzed. Images (5 to 6 sections/animal) were captured under light microscope. The demyelinated areas (lack of LFB staining) were quantified using ImageJ software. For EAE sections, demyelinated areas were measured and represented as a percentage of total area of spinal cord. For sections of LPC model, lesion volumes were calculated by the lesion area from serial sections throughout the entire lesion based on the equation for volume of cylinder (V=lesion area×length of lesion).
Mice were anesthetized with avertin and perfusion with PBS and 4% paraformaldehyde (PFA). Brain or spinal cord were dissected and post-fixed in 4% PFA overnight at 4° C. and equilibrated in 20% sucrose. 20 μm-thick sections were pretreated with Reveal Decloaker Solution (RV 1000M, Biocare Medical) for antigen retrieval according to the manufacturer's instructions. […] For each staining, at least 3 individual animals/group were examined and images were captured with a Leica DFC500 fluorescence microscope. Staining was quantified using Image J software (US National Instisutes of Health, USA). Fluorescence intensity was calculated as percentages of the mean value of the naïve controls.
For ultrastructural analyses of myelination, anesthetized animals were perfused with 2% glutaraldehyde/4% paraformaldehyde in 0.1 M sodium carcodylate buffer, PH7.4 (Electron Microscopy Sciences). Lesioned areas of the LPC or EAE-induced spinal cords from ISP-treated or control animals were dissected and post-fixed in 1% OsO4 for 2 hrs. Coronal sections ([…]) of spinal cord or brain containing corpus callosum were prepared (Leica, Vibratome), dehydrated, stained with saturated uranyl acetate and embedded in a Poly/Bed812 resin (Polysciences Inc.). The 1 μm-thick sections were cut and stained with toluidine blue, and matched areas were selected for EM analysis. For ultrastructure analysis, ultrathin sections (0.1 μm) were cut and visualized using an electron microscope (JEOL100CX) at 80 kV. G-ratios were calculated from at least 50-100 randomly selected myelinated axons by measuring the myelin thickness of the inner and outer diameter of the myelin sheath.

aggrecan (CS56) = experiment: CSPG degradation by OPC conditioned media (CS56 spot quantification and western blot of aggrecan); type: cell-based, mouse
Description: (§1) CSPG gradients were prepared as described previously (Tom, V. J., et al. Studies on the Development and Behavior of the Dystrophic Growth Cone, the Hallmark of Regeneration Failure, in an In vitro Model of the Glial Scar and after Spinal Cord Injury.). 24-well glass coverslip were coated with poly-L-lysine and nitrocellulose, and a mixture of 700 μg/mL aggrecan (A1960 Sigma) and 10 μg/mL laminin (11243217001 Sigma) spotted on the coated coverslip. After drying, coated coverslips were then incubated with laminin at 37° C. for 3h. Purified OPCs were plated at a density of 10,000/coverslip and cultured in DMEM/F12 medium containing with N2, PDGF (20 ng/ml), FGF (20 ng/ml), NT-3 (5 ng/ml), CNTF (O1 ng/ml), Glutamine (200 mM). Coverslips were stained with CS-56 (C8035, Sigma, 1:500) and O4 antibodies (Hybridoma Core Cleveland Clinic, 1:10). O4-positive cells crossing the aggrecan border were counted for each spot. For CSPG gradient quantification, 1×10^6 OPCs were plated per well on PLL, 1 μg/mL laminin, and 2 μg/mL aggrecan coated 6-well plates. OPCs treated with vehicle, 2.5 μM ISP, or 2.5 μM SISP for 2 days at 37° C. CM was harvested and incubated with freshly made spots. Spots were incubated with CM for 2 days at 37° C. then stained with CS-56 and laminin (L9393, Sigma, 1:1000) antibodies and consistently imaged. Using ImageJ software (NIH), pixel intensities of the CS-56 or laminin spot rims were quantified using the same ROI. For cultured spinal cord explant, the spinal cords of cervical and thoracic of P1 mouse pups were chopped into 1-2 mm tissue pieces and transferred to the coverslip. Explants were cultured in DMEM/F12 medium with 15% FBS (Hyclone), O1 ng/ml PDGF (Sigma) and N2 supplement (Invitrogen). For ISP treatment, 2.5 uM ISP was added to the media at the time of plating. 25 μM GM6001 (2983, Tocris), 100 nM MMP-2 inhibitor (444244, Calbiochem), and/or 2.5 μM ISP or SISP was used.
CM was harvested from 1×10^6 OPCs incubated on PLL, 1 μg/mL laminin, and 2 μg/mL aggrecan coated 6-well plates. OPCs were treated with vehicle, 2.5 μM ISP, or 2.5 μM SISP in conjunction with 10 μg/mL Exo1 (ab120292, Abcam), or 25 μM GM6001 (364205, Calbiochem) for 2 days at 37° C. […] CM of each cell-strained group was incubated with 20 μg/mL aggrecan and/or 10 μg/mL laminin for 2 hours in lmL Eppendorf tubes at 37° C. As a positive control, OPC media was incubated with aggrecan and incubated in the same fashion. Western blots were then performed as described below with incubation against CS-56 and/or laminin antibodies.

laminin = experiment: Laminin degradation by OPC conditioned media (spot staining and western blot); type: cell-based, mouse
Description: as §1, with “Spots were incubated with CM for 2 days at 37° C. then stained with CS-56 and laminin (L9393, Sigma, 1:1000) antibodies and consistently imaged.” left out, “For cultured spinal cord explant, the spinal cords of cervical and thoracic of P1 mouse pups were chopped into 1-2 mm tissue pieces and transferred to the coverslip. Explants were cultured in DMEM/F12 medium with 15% FBS (Hyclone), O1 ng/ml PDGF (Sigma) and N2 supplement (Invitrogen). For ISP treatment, 2.5 uM ISP was added to the media at the time of plating. 25 μM GM6001 (2983, Tocris), 100 nM MMP-2 inhibitor (444244, Calbiochem), and/or 2.5 μM ISP or SISP was used.” left out

[1] = 14 dpl, given together with ISP, vs LPC+ISP
[2] = 7 dpl, lesion epicenter, ISP started immediately

With CCCCCCCC/C=C\CCCCCCCC(=O)NO [OA-Hy, reference compound] the CS56 immunoreactivity (LPC-demyelinated mice; [1]) was “concomitant increase in CS56 immunoreactivity”, the “Olig2+ OPCs in the lesion epicenter” value (LPC-demyelinated mice; [1]) was “decreased accumulation” and the “lesion volume, eriochrome cyanine myelin staining” value (LPC-demyelinated mice; 18 dpl, MMP-2 inhibition without ISP, vs vehicle control) was “increased the lesion volume”. For the same molecule, the “effect on ISP-enhanced remyelination (lesion volume)” value (LPC-demyelinated mice; 18 dpl, given together with ISP) was “attenuated the enhanced remyelinating effects of ISP”, the CS56 spot degradation (aggrecan (CS56); 25 μM GM6001 or 100 nM OA-Hy with 2.5 μM ISP) was “additionally rescued CS56 spot degradation” and the “aggrecan GAG digestion (CS56 immunoblot)” value (aggrecan (CS56); Exo1 10 μg/mL, GM6001 25 μM or OA-Hy 100 nM with 2.5 μM ISP) was “partially rescued”.
In the case of “GRKKRRQRRRCDMAEHMERLKANDSLKLSQEYESI [ISP]”, the “Olig2+/Ki67+ cells” value (LPC-demyelinated mice; 7 dpl vs vehicle) is reported as “no differences”, the “percentage of Olig2+ OPCs in lesions” value (LPC-demyelinated mice; 7 dpl vs vehicle) is reported as “significantly increased” and the “lesion volume (LFB)” value (LPC-demyelinated mice; 7 dpl, ISP 20 μg/day subcutaneous from 1 day post LPC, vehicle 1.508±0.069) is reported as 1.535±0.058 mm^3. For the same molecule, the “CSPG expression (CS56, Cat301)” value (LPC-demyelinated mice; 7 dpl, ISP started immediately upon LPC injection, 7 days) was “significantly reduced”, the “MBP myelin protein expression vs control” value (LPC-demyelinated mice; [2]) was “no change” and the “activated microglia (Iba1) vs control” value (LPC-demyelinated mice; [2]) was “no change”. The “reactive astrocytes (GFAP) vs control” value (LPC-demyelinated mice; [2]) was “no change”, the “MBP expression, western blot” value (LPC-demyelinated mice; 14 dpl) was “increased expression of MBP” and the “CSPGs (CS56 and Cat301) immunostaining” value (LPC-demyelinated mice; 14 dpl vs controls) was “quicker reduction of CSPGs”. The “lesion volume (LFB)” value (LPC-demyelinated mice; 14 dpl, vehicle 1.035±0.06) was 0.613±0.043 mm^3, the “lesion volume (LFB)” value (LPC-demyelinated mice; 21 dpl, vehicle 0.738±0.027) was 0.2±0.041 mm^3 and the “percentage of CC1+ oligodendrocytes in lesions” value (LPC-demyelinated mice; LPC-injected animals, 14 dpl) was “significantly enhanced”. For the same molecule, the “MMP-2 expression in the LPC-injected site (immunohistochemistry, western blot)” value (LPC-demyelinated mice; spinal cord, vs LPC vehicle) was “markedly enhanced”, the “CS56 immunoblot of aggrecan incubated with OPC CM” value (aggrecan (CS56); 2.5 μM ISP, aggrecan 20 μg/mL) was “significant CS56 degradation” and the “CS56 expression of aggrecan/laminin spots” value (aggrecan (CS56); CM of OPCs treated with 2.5 μM ISP, vs vehicle, SISP and no cell control) was “significantly reduced CS56 expression”. For the same molecule, the “CS56 band, western blot” value (aggrecan (CS56); ISP at 2.5 and 5 μM doses vs control) was “significant ISP-treated CS56 degradation”, the “aggrecan digestion, dependence on ISP dose (western blot)” value (aggrecan (CS56); varying doses of ISP, aggrecan 20 μg/mL, 2 hours) was “dose-dependent manner” and the “laminin portion of the spot, immunostaining” value (laminin; CM of OPCs treated with 2.5 μM ISP) was “completely spared”. For the same molecule, the laminin immunoblot (laminin; OPC CM, 2.5 μM ISP, laminin 10 μg/mL) was “no significant changes”.
